IC50 and Ki data for 35 compounds are collected here from ChEMBL document CHEMBL1909046, “DrugMatrix in vitro pharmacology data”.

Targets include Cytochrome P450 2C9 (Homo sapiens, UniProt P11712); Cytochrome P450 2C19 (Homo sapiens, UniProt P33261); Cytochrome P450 2D6 (Homo sapiens, UniProt P10635); Cytochrome P450 2E1 (Homo sapiens, UniProt P05181); Cytochrome P450 3A4 (Homo sapiens, UniProt P08684).
The target in experiment [1] is T1, Androgen receptor (Rattus norvegicus, UniProt P15207).
T1 sequence (P15207 whole entry): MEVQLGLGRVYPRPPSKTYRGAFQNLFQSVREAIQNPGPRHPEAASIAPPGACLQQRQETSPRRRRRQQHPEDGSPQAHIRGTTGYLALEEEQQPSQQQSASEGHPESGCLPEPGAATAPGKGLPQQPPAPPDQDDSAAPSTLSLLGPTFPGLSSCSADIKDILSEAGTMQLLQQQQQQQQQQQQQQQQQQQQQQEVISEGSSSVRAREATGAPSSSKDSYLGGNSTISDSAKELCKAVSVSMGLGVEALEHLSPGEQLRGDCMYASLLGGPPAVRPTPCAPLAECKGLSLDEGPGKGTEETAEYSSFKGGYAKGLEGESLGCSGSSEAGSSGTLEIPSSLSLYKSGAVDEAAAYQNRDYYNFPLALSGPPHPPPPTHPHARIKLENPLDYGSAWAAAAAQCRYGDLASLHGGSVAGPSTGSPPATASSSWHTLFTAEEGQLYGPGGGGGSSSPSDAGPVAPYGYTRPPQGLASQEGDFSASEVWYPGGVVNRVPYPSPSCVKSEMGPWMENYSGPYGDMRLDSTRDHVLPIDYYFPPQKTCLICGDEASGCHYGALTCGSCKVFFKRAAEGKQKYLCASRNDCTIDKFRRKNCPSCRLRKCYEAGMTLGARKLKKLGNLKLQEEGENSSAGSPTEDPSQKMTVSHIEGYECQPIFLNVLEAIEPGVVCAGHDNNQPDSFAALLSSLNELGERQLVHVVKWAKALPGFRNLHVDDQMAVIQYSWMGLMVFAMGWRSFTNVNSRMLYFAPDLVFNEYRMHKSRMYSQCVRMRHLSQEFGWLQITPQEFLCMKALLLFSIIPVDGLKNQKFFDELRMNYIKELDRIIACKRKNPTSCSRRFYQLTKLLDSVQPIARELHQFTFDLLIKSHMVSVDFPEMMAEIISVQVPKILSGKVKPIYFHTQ

Experiment [2] has as its target T1, Androgen receptor. The source holds these as a separate data set.
The next experiment deals with T2, Glucocorticoid receptor (Homo sapiens, UniProt P04150).
T2 sequence (P04150 whole entry): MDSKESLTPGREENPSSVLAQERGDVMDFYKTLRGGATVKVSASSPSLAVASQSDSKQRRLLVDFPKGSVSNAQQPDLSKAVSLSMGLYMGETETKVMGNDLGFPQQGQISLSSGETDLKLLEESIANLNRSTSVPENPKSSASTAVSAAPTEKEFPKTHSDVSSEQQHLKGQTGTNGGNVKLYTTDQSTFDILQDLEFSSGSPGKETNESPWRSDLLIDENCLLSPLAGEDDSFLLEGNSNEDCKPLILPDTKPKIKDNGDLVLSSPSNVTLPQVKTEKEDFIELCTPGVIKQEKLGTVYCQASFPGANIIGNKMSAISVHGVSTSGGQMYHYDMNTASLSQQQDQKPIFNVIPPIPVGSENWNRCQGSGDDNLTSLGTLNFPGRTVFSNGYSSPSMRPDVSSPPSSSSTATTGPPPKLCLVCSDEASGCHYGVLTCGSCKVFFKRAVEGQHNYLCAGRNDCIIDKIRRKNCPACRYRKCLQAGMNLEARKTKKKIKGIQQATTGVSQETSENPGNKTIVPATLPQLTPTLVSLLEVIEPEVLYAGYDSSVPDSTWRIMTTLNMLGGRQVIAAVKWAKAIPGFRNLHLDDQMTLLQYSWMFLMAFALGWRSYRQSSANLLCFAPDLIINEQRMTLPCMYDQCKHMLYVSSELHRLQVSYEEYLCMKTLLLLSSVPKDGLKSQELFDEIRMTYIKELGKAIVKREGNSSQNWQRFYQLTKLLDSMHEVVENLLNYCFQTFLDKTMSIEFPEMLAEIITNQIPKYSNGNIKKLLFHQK
Put plainly: biochemical.

In general, IC50 refers to the concentration at which inhibition is half-maximal. A lower IC50 goes with greater potency. What is called Ki is a measure of affinity in units of concentration, obtained from inhibition or displacement.
Note: in other assays of this panel Not Active means under 50% inhibition at 10 µM.

Chain of Cytochrome P450 2D6 (P10635 whole entry): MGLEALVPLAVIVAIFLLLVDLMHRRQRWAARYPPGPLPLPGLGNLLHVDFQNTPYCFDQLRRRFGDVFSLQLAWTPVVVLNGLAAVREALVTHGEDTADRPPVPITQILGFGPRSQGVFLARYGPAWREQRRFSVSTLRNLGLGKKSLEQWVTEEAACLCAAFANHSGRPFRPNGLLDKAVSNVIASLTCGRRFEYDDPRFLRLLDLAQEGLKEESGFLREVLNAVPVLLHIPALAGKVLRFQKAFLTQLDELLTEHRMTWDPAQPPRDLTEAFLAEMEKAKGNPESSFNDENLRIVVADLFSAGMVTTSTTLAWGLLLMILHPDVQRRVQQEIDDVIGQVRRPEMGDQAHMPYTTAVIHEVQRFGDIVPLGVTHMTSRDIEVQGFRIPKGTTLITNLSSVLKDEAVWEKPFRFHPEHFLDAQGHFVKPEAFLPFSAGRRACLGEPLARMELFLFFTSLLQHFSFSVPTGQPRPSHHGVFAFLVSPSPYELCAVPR
Chain of Cytochrome P450 2C9 (P11712 whole entry): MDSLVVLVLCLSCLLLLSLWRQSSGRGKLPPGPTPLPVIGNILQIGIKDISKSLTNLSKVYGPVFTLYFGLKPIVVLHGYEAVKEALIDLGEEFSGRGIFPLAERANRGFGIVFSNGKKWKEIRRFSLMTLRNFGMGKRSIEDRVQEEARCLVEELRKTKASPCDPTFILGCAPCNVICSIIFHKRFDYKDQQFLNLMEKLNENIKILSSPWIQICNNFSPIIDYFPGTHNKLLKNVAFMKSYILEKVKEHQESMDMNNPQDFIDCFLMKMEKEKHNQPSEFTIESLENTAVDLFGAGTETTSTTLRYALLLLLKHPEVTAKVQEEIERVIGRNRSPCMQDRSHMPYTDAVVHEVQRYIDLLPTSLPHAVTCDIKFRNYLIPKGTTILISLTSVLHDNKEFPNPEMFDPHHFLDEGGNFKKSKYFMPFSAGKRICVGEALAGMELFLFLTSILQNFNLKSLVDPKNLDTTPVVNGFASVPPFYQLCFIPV
Chain of Cytochrome P450 2C19 (P33261 whole entry): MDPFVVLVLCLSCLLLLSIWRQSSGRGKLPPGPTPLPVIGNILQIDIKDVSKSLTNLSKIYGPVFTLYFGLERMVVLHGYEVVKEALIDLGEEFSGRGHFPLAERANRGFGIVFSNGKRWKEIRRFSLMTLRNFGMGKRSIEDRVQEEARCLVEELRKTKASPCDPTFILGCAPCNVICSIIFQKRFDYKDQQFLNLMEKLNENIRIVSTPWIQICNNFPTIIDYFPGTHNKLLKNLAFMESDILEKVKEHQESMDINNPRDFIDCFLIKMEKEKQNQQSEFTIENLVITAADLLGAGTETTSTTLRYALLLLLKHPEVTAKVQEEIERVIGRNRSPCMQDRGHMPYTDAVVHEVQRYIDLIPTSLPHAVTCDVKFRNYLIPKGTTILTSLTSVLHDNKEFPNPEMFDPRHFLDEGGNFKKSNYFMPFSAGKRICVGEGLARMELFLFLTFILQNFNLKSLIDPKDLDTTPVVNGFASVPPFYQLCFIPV
Chain of Cytochrome P450 3A4 (P08684 whole entry): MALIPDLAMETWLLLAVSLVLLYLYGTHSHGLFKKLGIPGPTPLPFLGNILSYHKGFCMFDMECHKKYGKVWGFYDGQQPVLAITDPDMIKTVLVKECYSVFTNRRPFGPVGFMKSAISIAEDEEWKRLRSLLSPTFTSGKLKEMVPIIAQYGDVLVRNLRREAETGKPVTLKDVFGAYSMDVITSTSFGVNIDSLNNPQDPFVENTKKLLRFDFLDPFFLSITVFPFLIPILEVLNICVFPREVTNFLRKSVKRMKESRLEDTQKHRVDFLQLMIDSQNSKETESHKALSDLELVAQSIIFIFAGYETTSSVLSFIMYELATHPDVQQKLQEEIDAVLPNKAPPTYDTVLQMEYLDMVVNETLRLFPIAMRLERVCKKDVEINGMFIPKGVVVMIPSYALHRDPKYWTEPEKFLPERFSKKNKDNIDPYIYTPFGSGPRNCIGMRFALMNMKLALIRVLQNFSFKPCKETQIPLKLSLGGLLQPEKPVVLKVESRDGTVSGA
Chain of Cytochrome P450 2E1 (P05181 whole entry): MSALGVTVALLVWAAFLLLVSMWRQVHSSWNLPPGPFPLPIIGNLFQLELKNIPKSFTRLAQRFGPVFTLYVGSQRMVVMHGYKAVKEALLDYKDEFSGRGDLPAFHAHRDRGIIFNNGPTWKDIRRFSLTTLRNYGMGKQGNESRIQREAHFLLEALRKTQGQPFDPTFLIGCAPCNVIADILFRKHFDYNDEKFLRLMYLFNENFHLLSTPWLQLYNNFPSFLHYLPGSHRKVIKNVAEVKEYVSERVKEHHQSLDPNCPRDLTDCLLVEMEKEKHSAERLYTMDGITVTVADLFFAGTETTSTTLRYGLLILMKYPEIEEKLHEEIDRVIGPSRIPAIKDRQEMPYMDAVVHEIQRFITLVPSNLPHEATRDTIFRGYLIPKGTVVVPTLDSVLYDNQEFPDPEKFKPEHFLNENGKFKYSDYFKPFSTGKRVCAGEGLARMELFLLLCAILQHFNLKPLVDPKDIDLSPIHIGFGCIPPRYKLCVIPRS

In the case of `CCOc1nc2cccc(C(=O)O)c2n1Cc1ccc(-c2ccccc2-c2nnn[nH]2)cc1`, on Androgen receptor [1], the concentration for half-maximal inhibition (IC50) entry is given as “Not Active”. On the same count and under the same terms, the result for `O=C(O)CCCc1cccs1` reads “Not Active”.

Consider `O=C(c1ccccc1F)N1CCC(Cc2ccccc2)CC1`, for which the IC50 at Cytochrome P450 2C9 is 2 µM; against Androgen receptor [1], “Not Active”; against Cytochrome P450 2C19, 0.5 µM. At Androgen receptor [2], `Cc1c(O)cccc1C(=O)N[C@@H](CSc1ccccc1)[C@H](O)CN1C[C@H]2CCCC[C@H]2C[C@H]1C(=O)NC(C)(C)C` showed an IC50 of 36.4 µM and a Ki of 24.3 µM. For `CC(O)COC[C@H]1O[C@@H]2O[C@H]3[C@H](O)[C@@H](O)[C@@H](O[C@H]4[C@H](O)[C@@H](O)[C@@H](O[C@H]5[C@H](O)[C@@H](O)[C@@H](O[C@H]6[C@H](O)[C@@H](O)[C@@H](O[C@H]7[C@H](O)[C@@H](O)[C@@H](O[C@H]8[C@H](O)[C@@H](O)[C@@H](O[C@H]1[C@H](O)[C@H]2O)O[C@@H]8COCC(C)O)O[C@@H]7COCC(C)O)O[C@@H]6COCC(C)O)O[C@@H]5COCC(C)O)O[C@@H]4COCC(C)O)O[C@@H]3COCC(C)O` (stereo partly drawn) [2-HYDROXYPROPYL-BETA-CYCLODEXTRIN] the same measures were 2.16 µM and 1.44 µM.

In the case of `NC(=O)c1cccc(N)c1` [3-AMINOBENZAMIDE], the IC50 entry against Androgen receptor [1] was “Not Active”. For `CC[C@H]1[C@@H]2C[C@H]3[C@@H]4N(C)c5ccccc5[C@]45C[C@@H]([C@@H]2[C@H]5O)N3[C@@H]1O` [AJMALINE], half-maximal inhibition against Cytochrome P450 2D6 (IC50) required 1 µM. For `CC(=O)Oc1ccccc1C(=O)O` [ASPIRIN], on Androgen receptor [1], the IC50 entry is “Not Active”.

In the case of `CC(=O)OC[C@H]1O[C@@H](n2ncc(=O)[nH]c2=O)[C@H](OC(C)=O)[C@@H]1OC(C)=O` [AZARIBINE], on Androgen receptor [1], the IC50 result is “Not Active”.

As for `COc1cc(OC)c(C(=O)CCCN2CCCC2)c(OC)c1` [BUFLOMEDIL], the IC50 result at Androgen receptor [1] was “Not Active”.

For `ClC(Cl)(Cl)Cl` [CARBON TETRACHLORIDE], at Cytochrome P450 2E1, the IC50 was determined as 11 µM. Regarding `CNC1=Nc2ccc(Cl)cc2C(c2ccccc2)=[N+]([O-])C1` [CHLORDIAZEPOXIDE], at Androgen receptor [1], the IC50 result is recorded as “Not Active”. For the compound `CC(C)NCC(O)c1ccccc1Cl` (stereo unspecified) [CLORPRENALINE], the IC50 result against Androgen receptor [1] was “Not Active”.

For `CN1CCN(C(c2ccccc2)c2ccccc2)CC1` [CYCLIZINE], the IC50 against Cytochrome P450 2D6 was 6.22 µM; on Androgen receptor [1], “Not Active”. Turning to `CC(C)C[C@H]1C(=O)N2CCC[C@H]2[C@]2(O)O[C@](NC(=O)[C@@H]3C=C4c5cccc6[nH]cc(c56)C[C@H]4N(C)C3)(C(C)C)C(=O)N12` [ERGOCRYPTINE], the IC50 at Cytochrome P450 2C9 is 6 µM; on Androgen receptor [1], “Not Active”; against Cytochrome P450 3A4, 0.6 µM. For `C[C@]12CC[C@@H]3c4ccc(O)cc4CC[C@H]3[C@@H]1C[C@@H](O)[C@@H]2O` [ESTRIOL], at Glucocorticoid receptor, it took 39.3 µM to reach half-maximal inhibition (IC50) and the affinity corresponds to a Ki of 17.9 µM.

At Glucocorticoid receptor, `C#C[C@]1(O)CC[C@H]2[C@@H]3CCC4=CC(=O)CC[C@]4(C)[C@H]3CC[C@@]21C` [ETHISTERONE] had an IC50 of 0.209 µM and a Ki of 0.095 µM. For `COC(=O)Nc1nc2cc(C(=O)c3ccc(F)cc3)ccc2[nH]1` [FLUBENDAZOLE], the IC50 result at Androgen receptor [1] is “Not Active”. On the same count and under the same terms, the result for `CC(=O)OCC(=O)[C@@]1(O)CC[C@H]2[C@@H]3CCC4=CC(=O)CC[C@]4(C)[C@@]3(F)[C@@H](O)C[C@@]21C` [FLUDROCORTISONE ACETATE] reads “Not Active”; that for `CCOC(=O)c1ncn2c1CN(C)C(=O)c1cc(F)ccc1-2` [FLUMAZENIL], “Not Active”. On Glucocorticoid receptor, `CC(=O)OCC(=O)[C@@]12OC(C)(C)O[C@@H]1C[C@H]1[C@@H]3C[C@H](F)C4=CC(=O)C=C[C@]4(C)[C@@]3(F)[C@@H](O)C[C@@]12C` [FLUOCINONIDE] showed an IC50 of 0.00526 µM and a Ki of 0.00239 µM.

Take `Cc1ccc(C)c(OCCCC(C)(C)C(=O)O)c1` [GEMFIBROZIL]: at Androgen receptor [1], the IC50 entry is “Not Active”. `O=c1c(-c2ccc(O)cc2)coc2cc(O)cc(O)c12` [GENISTEIN]: the IC50 result on Androgen receptor [1] is given as “Not Active”.

In the case of `CCC1=C(C)CN(C(=O)NCCc2ccc(S(=O)(=O)NC(=O)N[C@H]3CC[C@H](C)CC3)cc2)C1=O` [GLIMEPIRIDE], the IC50 result against Androgen receptor [1] is recorded as “Not Active”. The same measure, in the same setting: the result for `Nc1cc(-c2ccncc2)c[nH]c1=O` [INAMRINONE] reads “Not Active”; that for `N[C@@H](Cn1ccc(=O)c(O)c1)C(=O)O` [L-MIMOSINE], “Not Active”; that for `CN1C(=O)CN=C(c2ccccc2)c2cc([N+](=O)[O-])ccc21` [NIMETAZEPAM], “Not Active”. For `COc1ccc2c(c1OC)C(=O)O[C@@H]2[C@H]1c2c(cc3c(c2OC)OCO3)CCN1C` [NOSCAPINE], the IC50 at Cytochrome P450 2C9 came out at 8.18 µM; against Cytochrome P450 2C19, 0.4 µM. Take `C[C@@H]1O[C@@H](O[C@H]2C[C@@H](O)[C@]3(CO)[C@H]4[C@H](O)C[C@]5(C)[C@@H](C6=CC(=O)OC6)CC[C@]5(O)[C@@H]4CC[C@]3(O)C2)[C@H](O)[C@H](O)[C@H]1O` [OUABAIN]: at Androgen receptor [1], the IC50 result is listed as “Not Active”. `NNCCc1ccccc1` [PHENELZINE]: the results for the IC50 against Cytochrome P450 2D6, against Cytochrome P450 2C9 and on Cytochrome P450 2C19 were 1 µM, 4 µM and 0.8 µM, respectively. With `CCN(CC)CCCC(C)Nc1c2ccc(Cl)cc2nc2ccc(OC)cc12` (stereo unspecified) [QUINACRINE], the half-inhibitory concentration (IC50) entry against Androgen receptor [1] was “Not Active”. In the case of `C[C@]12C=CC(=O)C=C1CC[C@H]1[C@@H]3C[C@@H](O)[C@](O)(C(=O)CO)[C@@]3(C)C[C@H](O)[C@@]12F` [TRIAMCINOLONE], on Glucocorticoid receptor, the midpoint of inhibition, the IC50, lay at 0.058 µM and the Ki stood at 0.026 µM. For the compound `CC[C@]1(O)C[C@@H]2CN(CCc3c([nH]c4ccccc34)[C@@](C(=O)OC)(c3cc4c(cc3OC)N(C)[C@H]3[C@@](O)(C(N)=O)[C@H](O)[C@]5(CC)C=CCN6CC[C@]43[C@@H]65)C2)C1` [VINDESINE], the IC50 entry against Androgen receptor [1] was “Not Active”.

Consider COBALTOUS CHLORIDE, for which, on Androgen receptor [1], the IC50 result is recorded as “Not Active” and the Ki result is “Not Active”. With COLISTIN, at Androgen receptor [1], the half-inhibitory concentration (IC50) result is given as “Not Active” and the Ki entry was “Not Active”.
